In patent publication US20240208954A1, “OXADIAZOLE COMPOUND, PREPARATION METHOD THEREFOR, PHARMACEUTICAL COMPOSITION AND USE THEREOF” (SHANGHAI INSTITUTE OF MATERIA MEDICA, CHINESE ACADEMY OF …, priority 2020, published 2024):
Several values for one entry are separate records, joined by “and”; a condition that tells them apart may be missing. Equal entries are not always repeated. Where two headings read alike, the source gives them in different places.

Assay: Preliminary evaluation of pharmacokinetics in Beagle dogs
Format: in vivo
Conditions: for MRT inf: read-out: MRT0-∞; for concentration at 0.083 h / concentration at 0.25 h / concentration at 0.5 h / concentration at 1 h / concentration at 2 h / concentration at 3 h / concentration at 4 h / concentration at 6 h / concentration at 8 h: read-out: Plasma drug concentration in Beagle dogs
[1] = Beagle dogs, intragastric 3 mg/kg, individual animals 4-6, listed as DC411151
[2] = Beagle dogs, intravenous 0.5 mg/kg, individual animals 1-3, listed as DC411151, 0.5 mg/kg
[3] = Beagle, dog, plasma, po, 3 mg/kg, Beagle dogs, intragastric 3 mg/kg, individual animals 4-6
[4] = Beagle, dog, plasma, po, 3 mg/kg, Beagle dogs, intragastric 3 mg/kg, mean
[5] = beagle, dog, plasma, iv, 0.5 mg/kg, Beagle dogs, intravenous 0.5 mg/kg, individual animals 1-3
[6] = beagle, dog, plasma, iv, 0.5 mg/kg, Beagle dogs, intravenous 0.5 mg/kg, mean
[7] = beagle, dog, plasma, iv, 0.5 mg/kg, intravenous 0.5 mg/kg, individual animals 1-3
[8] = beagle, dog, plasma, iv, 0.5 mg/kg, intravenous 0.5 mg/kg, mean
[9] = beagle, dog, plasma, oral, 3 mg/kg, intragastric 3 mg/kg, mean
[10] = beagle, dog, plasma, oral, 3 mg/kg, intragastric 3 mg/kg, individual animals 4-6

CC(C)Oc1ccc(-c2nc(-c3ccc(CN4CC(C(=O)O)C4)c4ccccc34)no2)cc1C#N.Cl [Compound A1, 1-((4-(5-(3-cyano-4-isopropoxyphenyl)-1,2,4-oxadiazol-3-yl)naphthalen-1-yl)methyl) azetidine-3-carboxylic acid hydrochloric acid]
AUC0-t [1]: 1170 ng·h/mL and 1550 ng·h/mL and 757 ng·h/mL | AUC0-∞ [1]: 1200 ng·h/mL and 1570 ng·h/mL and 765 ng·h/mL | Cmax [1]: 318 ng/mL and 539 ng/mL and 242 ng/mL | MRT0-∞ [1]: 2.58 h and 2.44 h | Tmax [1]: 1 h and 0.25 h and 2 h | t1/2 [1]: 1.32 h and 1.06 h | plasma clearance as share of dog liver blood flow (about 31 mL/min/kg) (Beagle dogs, intravenous 0.5 mg/kg): 75.2% | AUC0-t [2]: 317 ng·h/mL and 382 ng·h/mL | AUC0-∞ [2]: 319 ng·h/mL and 382 ng·h/mL | CL [2]: 26.1 mL/min/kg and 21.8 mL/min/kg | MRT0-∞ [2]: 0.892 h and 0.952 h | Vss [2]: 1.40 L/kg and 1.24 L/kg | t1/2 [2]: 1.05 h and 0.905 h | half-life [3]: 1.3 h | MRT inf [3]: 2.93 h | AUC(0-inf) [4]: 1180 ng·h/mL | half-life [4]: 1.23 h | MRT inf [4]: 2.65 h | Tmax (Beagle, dog, plasma, po, 3 mg/kg, Beagle dogs, intragastric 3 mg/kg, mean, read-out: Tmax): 1.08 h | AUC(0-inf) [5]: 379 ng·h/mL | clearance [5]: 22 mL/min/kg | half-life [5]: 0.997 h | AUC0-t (beagle, dog, plasma, iv, 0.5 mg/kg, Beagle dogs, intravenous 0.5 mg/kg, individual animals 1-3, read-out: AUC0-t): 375 ng·h/mL | MRT inf [5]: 0.91 h | Vd (beagle, dog, plasma, iv, 0.5 mg/kg, Beagle dogs, intravenous 0.5 mg/kg, individual animals 1-3, read-out: Vss): 1.2 L/kg | AUC(0-inf) [6]: 360 ng·h/mL | AUC0-t (beagle, dog, plasma, iv, 0.5 mg/kg, Beagle dogs, intravenous 0.5 mg/kg, mean, read-out: AUC0-t): 358 ng·h/mL | MRT inf [6]: 0.918 h | concentration at 0.083 h [7]: 604 ng/mL | concentration at 0.083 h [8]: 565 ng/mL | concentration at 0.25 h [7]: 237 ng/mL | concentration at 0.25 h [8]: 265 ng/mL | concentration at 0.5 h [7]: 190 ng/mL | concentration at 0.5 h [8]: 168 ng/mL | concentration at 1 h [7]: 98.8 ng/mL | concentration at 1 h [8]: 90.9 ng/mL | concentration at 2 h [7]: 27.5 ng/mL | concentration at 2 h [8]: 30.2 ng/mL | concentration at 3 h [7]: 20.4 ng/mL | concentration at 3 h [8]: 17.7 ng/mL | concentration at 4 h [7]: 9.68 ng/mL | concentration at 4 h [8]: 9.39 ng/mL | concentration at 6 h [7]: 2.51 ng/mL | concentration at 6 h [8]: 2.21 ng/mL | concentration at 8 h [8]: 0.773 ng/mL | concentration at 0.25 h [9]: 215 ng/mL | concentration at 0.5 h [9]: 262 ng/mL | concentration at 1 h [10]: 333 ng/mL | concentration at 1 h [9]: 281 ng/mL | concentration at 2 h [10]: 365 ng/mL | concentration at 2 h [9]: 291 ng/mL | concentration at 3 h [10]: 212 ng/mL | concentration at 3 h [9]: 208 ng/mL | concentration at 4 h [9]: 111 ng/mL | concentration at 6 h [9]: 59.4 ng/mL | concentration at 8 h [9]: 10.8 ng/mL | Tmax (beagle, dog, plasma, po, 3 mg/kg, Beagle dogs, 3 mg/kg by gavage, range over animals, read-out: peak time Tmax): 0.25 to 2 h
